For one experiment, the system named is SNU-398 cells. Put plainly: Subcutaneous transplantation of peptide pre-treated SNU-398 cells into NOD/SCID mice. The experiment is classed as in vivo. As to conditions: for subcutaneous tumor volume / size: cells treated in vitro with 20 μM peptide. As for the experimental part: Cell viability was determined 72 hours after peptide treatments. Absorbance at 490 nm is directly correlated to cell viability. Wild type functional SALL4 peptide (wt), mutant non-functional SALL4 peptide (Mut.), trichostatin A (TSA), scrambled control peptide (Scr.), wild type peptide+PTEN inhibitor SF1670 (wt+Inh.) were given to the cells at the indicated concentration. PTEN inhibitor concentration was 400 nM. (31C, 31D) Western blot analyses of the effects of peptides on PTEN, AKT, and pAKT expression on SNU-398 (31C) and SNU-387 (31D) cells 72 hours following peptide treatments. 20 μM of wt or Scr. peptide or 100 nM of TSA was used. PTEN inhibitor concentration was 400 nM. (31E) Representative images show NOD/SCID mice transplanted with Scr peptide- and wt peptide-treated SNU-398 cells (left) and the dissected subcutaneous tumors (right). Arrow indicates subcutaneous tumor. (31F) Growth curve of subcutaneous tumors (left panel) and tumor weight of tumors dissected at day 26 post-transplantation (right panel). Results are mean±s.d. n=5; * P<0.05. (31G) Representative images show NOD/SCID mice transplanted with 3 million SNU-398 cells at the left flank and treated intraperitoneally for five consecutive days with 56 mg/kg body weight TAT-Mut. peptide or 60 mg/kg body weight wt peptide (top panel) and the dissected subcutaneous tumors (bottom). (31H) Tumor weight of tumors dissected at day 18 post-transplantation and post-treatment of mice treated intraperitoneally with TAT fusion peptides as described in 5 g. Results are mean±s.d. n=5; * P<0.05.
To test the therapeutic effect of this peptide in vivo, SNU-398 cells were subjected to in vitro treatment with 20 μM of wt or Scr. peptide and transplanted the peptide-treated cells subcutaneously into the flanks of NOD/SCID mice.

Another experiment relates to primary human AML cells. In words: Xenotransplantation of peptide-treated primary human AML cells into NSG mice. The experiment is classed as in vivo. As to conditions: 11 weeks after transplantation, cells treated with Pep-1 plus peptide. On the procedure:
FIGS. 12A-12F: Treatment of SALL4 peptide in primary human AML cells induces reduced cell viability in culture and impaired leukemic engraftment in vivo. (12A) Wild type peptide treatment reduces cell viability of human AML cells in culture, and this effect can be reversed in part by the PTEN inhibitor SF1670. 1×10^6 AML cells were treated with nothing (None), Pep-1 alone (Mock), or 20 μM wild type (wt), or scrambled peptide (scr), or wt peptide with 400 nM PTEN inhibitor SF1670 (wt+inh) or with 100 nM TSA for 48 hours, as described in the Methods. Cell viability of untreated primary AML cells is set as 100. […] Percentage of human CD45+ cells engrafted in BM, spleen (SP) and peripheral blood (PB) was determined by flow cytometry. […]
NSG (NOD.Cg-Prkdcscid Il2rgtm 1Wjl/SzJ, The Jackson Laboratory, ME, USA) mice were bred and maintained in the Children's Hospital Boston animal facility. […] The percentage of human CD45+ cells was calculated as follows: % human CD45+ cells=No. human CD45+ cells/(No. human CD45+ cells+No. mouse CD45+ cells)×100. […]
Subsequently tested was the ability of peptide treatment to inhibit the development of AML in vivo utilizing xenografts. […] In addition, the engraftment of human CD45+ cells was evaluated by flow cytometry (FIG. 12E). […]

Consider “H-MSRRKQAKPQHI-OH [wt peptide, MSRRKQAKPQHI]”, for which, in the experiment on SNU-398 cells, the “subcutaneous tumor volume / size” value was “significantly reduced”. Besides, in the experiment with SNU-398 cells (day 26), the “tumor burden (weight post-dissection)” value is given as “the tumor load was reduced”. Further, in the experiment on primary human AML cells, the “average engraftment of human CD45+ cells in bone marrow” value turned out to be 0.5%.
“Scr peptide: same 12 amino acids as the wt peptide, but in a scrambled sequence; negative control (SRMRQKIHPKIQ) [reference compound]”: in the experiment with SNU-398 cells, the “subcutaneous tumor volume / size” value is given as “grew into larger subcutaneous tumors”. The “average engraftment of human CD45+ cells in bone marrow” value with primary human AML cells is reported as “greater than 74%”.

For the origin of these results see patent US9365851B2, “Spalt-like transcription factor 4 (SALL4) and uses thereof” (National University of Singapore, priority 2011, dated 2016).
